Measured values from EPA's ToxRefDB 2.

Columns and labels:
rat [1] = conditions: Prenatal developmental toxicity study, sprague dawley, Oral, Gavage/Intubation, dose end: 15 GD
rat [2] = conditions: Multigenerational reproductive toxicity study, sprague dawley, Oral, Feed, dose end: 2 generation
rat [3] = conditions: Subchronic oral toxicity in rodents, sprague dawley, Feed, dose end: 13 week, group: systemic
rat [4] = conditions: Combined chronic toxicity/carcinogenicity, sprague dawley, Oral, Feed, dose end: 24 month, group: systemic
mouse = conditions: Carcinogenicity, cd1, Oral, Feed, dose end: 78 week, group: systemic
rat [5] = conditions: Prenatal developmental toxicity study, sprague dawley, Oral, Gavage/Intubation, dose end: 15 GD; remark: listed apart in the source
rat [6] = conditions: Multigenerational reproductive toxicity study, sprague dawley, Oral, Feed, dose end: 2 generation; remark: listed apart in the source
rat [7] = conditions: Prenatal developmental toxicity study, wistar, Inhalation, Whole-Body, dose end: 15 GD
rabbit = conditions: Prenatal developmental toxicity study, himalayan, Inhalation, Whole-Body, dose end: 29 GD
rat [8] = conditions: Fertility (Segment I), Oral, Gavage/Intubation, dose end: 1 generation
rat [9] = conditions: Fertility (Segment I), Oral, Gavage/Intubation, dose end: 1 generation; remark: listed apart in the source
rat [10] = conditions: Prenatal developmental toxicity study, Oral, Gavage/Intubation, dose end: 18 GD
[11] = group: developmental, developmental / developmental malformation / bone / delayed ossification
[12] = group: developmental, developmental / developmental malformation / bone / delayed ossification + developmental / developmental malformation / ureter / distended
[13] = group: maternal, systemic / in life observation / body weight / body weight gain + systemic / in life observation / food consumption / food consumption
[14] = group: maternal, systemic / in life observation / body weight / body weight gain + systemic / in life observation / food consumption / food consumption + …
[15] = group: offspring, systemic / in life observation / body weight / offspring (pup) weight
[16] = group: parental, systemic / pathology microscopic / stomach / proliferation
[17] = systemic / in life observation / food consumption / food consumption
[18] = systemic / in life observation / food consumption / food consumption + systemic / clinical chemistry / cholesterol / cholesterol + systemic…
[19] = group: developmental, developmental / developmental malformation / bone / incomplete ossification + developmental / developmental malformation / bone / split …
[20] = group: maternal, systemic / in life observation / body weight / body weight gain + systemic / in life observation / clinical signs / salivation + …
[21] = group: parental, systemic / in life observation / body weight / body weight + systemic / in life observation / body weight / body weight gain
[22] = group: developmental, developmental / developmental malformation / bone / incomplete ossification + developmental / developmental malformation / bone / …
[23] = group: developmental, developmental / developmental malformation / bone / malpositioned
[24] = group: maternal, systemic / in life observation / mortality / mortality
[25] = group: developmental, developmental / developmental malformation / heart / [other] + developmental / developmental malformation / limb / [other]
[26] = group: maternal, reproductive / reproductive performance / estrous cycle / abnormal + reproductive / reproductive performance / estrous cycle / corpora lutea…
[27] = group: parental, systemic / in life observation / clinical signs / alopecia
[28] = group: parental, systemic / in life observation / clinical signs / alopecia + systemic / in life observation / body weight / body weight + systemic / in life…
[29] = group: maternal, reproductive / reproductive performance / fertility / fertility + reproductive / reproductive performance / pregnancy index / pregnancy …
[30] = group: parental, systemic / in life observation / body weight / body weight + systemic / in life observation / clinical signs / body surface staining + …
[31] = group: parental, systemic / in life observation / clinical signs / convulsions
[32] = group: developmental, developmental / developmental malformation / eye / microphthalmia + developmental / developmental malformation / general / situs inversus + …
[33] = group: maternal, reproductive / reproductive performance / postimplantation loss / postimplantation loss + reproductive / reproductive performance / …

## COC[C@H](C)N(C(=O)CCl)c1c(C)csc1C [Dimethenamid-P]
Rat [1]; [11]
  LEL: 150 mg/kg/day
  LOAEL: 150 mg/kg/day
Rat [1]; [12]
  NEL: 25 mg/kg/day
  NOAEL: 25 mg/kg/day
Rat [1]; [13]
  LOAEL: 25 mg/kg/day
  NOAEL: < 25 mg/kg/day
Rat [1]; [14]
  LEL: 25 mg/kg/day
  NEL: < 25 mg/kg/day

## O=C([O-])C1C2CCC(O2)C1C(=O)[O-].[Na+].[Na+] (stereo not drawn) [Disodium endothal]
Rat [2]; [15]
  LEL: 10.9 mg/kg/day
  LOAEL: 77.1 mg/kg/day
  NEL: 2.1 mg/kg/day
  NOAEL: 10.9 mg/kg/day
Rat [2]; [16]
  LEL: 2.1 mg/kg/day
  LOAEL: 2.1 mg/kg/day
  NEL: < 2.1 mg/kg/day
  NOAEL: < 2.1 mg/kg/day

## CCSC(C)CC1CC(=O)C(C(CC)=NOC/C=C/Cl)=C(O)C1 (stereo not drawn) [Clethodim]
Rat [3]; [17]
  LEL: 25 mg/kg/day
  LOAEL: 25 mg/kg/day
Rat [3]; [18]
  NEL: 2.3 mg/kg/day
  NOAEL: 2.3 mg/kg/day
Rat [4]; systemic / in life observation / body weight / body weight gain + systemic / organ weight / liver / absolute + systemic / pathology …
  NOAEL: 19 mg/kg/day
Rat [4]; systemic / in life observation / body weight / body weight gain + systemic / organ weight / liver / relative to body weight + systemic / …
  LOAEL: 100 mg/kg/day
Rat [4]; systemic / pathology microscopic / bone marrow / hypocellularity
  LEL: 0.64 mg/kg/day
Rat [4]; systemic / pathology microscopic / bone marrow / hypocellularity + systemic / in life observation / body weight / body weight + systemic / …
  NEL: 0.18 mg/kg/day
mouse; systemic / pathology microscopic / liver / adenoma + systemic / pathology microscopic / lung / adenoma + systemic / hematology / erythrocyte…
  LEL: 30 mg/kg/day
mouse; systemic / pathology microscopic / liver / adenoma + systemic / pathology microscopic / lung / adenoma + systemic / pathology microscopic / …
  NEL: 3 mg/kg/day
mouse; systemic / pathology microscopic / liver / hypertrophy + systemic / organ weight / liver / relative to body weight + systemic / organ weight…
  LOAEL: 150 mg/kg/day
mouse; systemic / pathology microscopic / liver / hypertrophy + systemic / pathology microscopic / liver / adenoma + systemic / hematology / …
  NOAEL: 30 mg/kg/day
Rat [5]; group: developmental, developmental / developmental malformation / bone / absent + developmental / developmental malformation / mouth / jaw / maxillary …
  LEL: 100 mg/kg/day
Rat [5]; [19]
  LOAEL: 350 mg/kg/day
  NEL: 10 mg/kg/day
  NOAEL: 100 mg/kg/day
Rat [5]; group: maternal, systemic / in life observation / body weight / body weight gain + systemic / in life observation / clinical signs / salivation
  LOAEL: 350 mg/kg/day
Rat [5]; group: maternal, systemic / in life observation / body weight / body weight gain + systemic / in life observation / clinical signs / salivation + systemic / …
  LEL: 350 mg/kg/day
Rat [5]; [20]
  NEL: 100 mg/kg/day
  NOAEL: 100 mg/kg/day

## CC1COc2ccccc2N1C(=O)C(Cl)Cl (stereo not drawn) [Benoxacor]
Rat [6]; [15]
  LEL: 45.5 mg/kg/day
  LOAEL: 45.5 mg/kg/day
  NEL: 4.2 mg/kg/day
  NOAEL: 4.2 mg/kg/day
Rat [6]; [21]
  LEL: 34.8 mg/kg/day
  LOAEL: 34.8 mg/kg/day
  NEL: 3.55 mg/kg/day
  NOAEL: 3.55 mg/kg/day

## CC(C)CCO [Isopentyl alcohol]
Rat [7]; [22]
  LOAEL: > 10 ppm
  NOAEL: ≥ 10 ppm
Rat [7]; [23]
  LEL: 0.5 ppm
  NEL: < 0.5 ppm
Rat [7]; [24]
  LEL: 0.5 ppm
  LOAEL: > 10 ppm
  NEL: < 0.5 ppm
  NOAEL: ≥ 10 ppm
rabbit; [25]
  LEL: 0.5 ppm
  LOAEL: > 10 ppm
  NEL: < 0.5 ppm
  NOAEL: ≥ 10 ppm
rabbit; [24]
  LEL: 2.5 ppm
  LOAEL: 2.5 ppm
  NEL: 0.5 ppm
  NOAEL: 0.5 ppm

## O=C(N[C@H]1CN2CCC1CC2)c1cc2ccoc2cn1
Rat [8]; [26]
  LEL: 150 mg/kg/day
  LOAEL: > 150 mg/kg/day
  NEL: 50 mg/kg/day
  NOAEL: ≥ 150 mg/kg/day
Rat [8]; [27]
  LEL: 5 mg/kg/day
  NEL: < 5 mg/kg/day
Rat [8]; [28]
  LOAEL: > 150 mg/kg/day
  NOAEL: ≥ 150 mg/kg/day
Rat [9]; [29]
  LEL: 150 mg/kg/day
  LOAEL: > 175 mg/kg/day
  NEL: 75 mg/kg/day
  NOAEL: ≥ 175 mg/kg/day
Rat [9]; [30]
  LOAEL: > 175 mg/kg/day
  NOAEL: ≥ 175 mg/kg/day
Rat [9]; [31]
  LEL: 7 mg/kg/day
  NEL: < 7 mg/kg/day
Rat [10]; [32]
  LOAEL: > 150 mg/kg/day
  NOAEL: ≥ 150 mg/kg/day
Rat [10]; group: developmental, developmental / developmental malformation / great vessels / [other]
  LEL: 20 mg/kg/day
Rat [10]; [33]
  LOAEL: > 150 mg/kg/day
  NEL: 5 mg/kg/day
  NOAEL: ≥ 150 mg/kg/day
Rat [10]; group: maternal, systemic / in life observation / clinical signs / alopecia
  LEL: 20 mg/kg/day
